Test results: patent publication US20260166159A1, “KRAS G12D DEGRADATION AGENT, AND PREPARATION METHOD AND USE THEREFOR” (LEADINGTAC PHARMACEUTICAL (SHAOXING) CO., LTD., priority 2022, published 2026)

What was measured:
[1] = system: KRAS G12D mutant human gastric cancer cell AGS; experiment: 3D cell proliferation inhibition assay, AGS; format: cell-based; conditions: 168 h, 7 days, CTG, numeric values
Excerpt: The inhibitory effects of the compounds on 3D cell proliferation were investigated on KRAS G12D mutant human lung cancer cell A427, KRAS G12D mutant human gastric cancer cell AGS, KRAS G12D mutant human metastatic pancreatic cancer cell AsPc-1, KRAS G12D mutant human pancreatic cancer cell Panc 04.03, KRAS G12D mutant human pancreatic cancer cell HPAC, KRAS G12V mutant human lung squamous cell carcinoma cell SW900, and KRAS WT human gastric cancer cell MKN1. The specific procedures were as follows:
10 μL of each compound solution diluted in a gradient was added to corresponding wells of a 96-well low-adsorption microplate (PerkinElmer), so that the final concentrations of the test compounds in the reaction system were in a range of 10000-0.026 nM. The final concentration of DMSO was 0.2%. Then 90 µL of cells were correspondingly seeded into each well to achieve a cell density of 5×10^2 cells/well (the cell density of SW900 was 5×10^1 cells/well, and the cell density of MKN1 was 1×10^3 cells/well). In addition to test wells for the test compounds, both a DMSO control well and a medium control well were set, with the DMSO control well containing DMSO and cells and the medium well containing only a medium. After the sample loading, the 96-well low-adsorption microplate was incubated in an incubator at 37° C. with 5% carbon dioxide for 7 days. After 7 days, the microplate was taken out, and 100 μL of CTG reagent (Promega) was added to each well. The plate was incubated at room temperature for 60 min and read on a microplate reader EnVision by the chemiluminescence program. The inhibition rates of the compounds at each concentration were calculated using the formula for the percentage inhibition of cell proliferation: inhibition rate %=(mean value of DMSO control group−single concentration reading value of compound)/(mean value of DMSO control group−mean value of medium control group)×100. Then non-linear curve fittings for logarithmic concentration-inhibition rate were performed by GraphPad Prism 8, and the IC50 values of the compounds were obtained (Table 5).

[2] = target: T1, KRAS-G12D (Homo sapiens, UniProt P01116, G12D); experiment: KRAS-G12D degradation assay (Western Blot), A-427 cells; format: cell-based; conditions: A427 cells, 24 h; for Dmax: A-427
T1 construct: endogenous in cells; host or cells: A-427 (ATCC), AGS, AsPc-1, Panc 04.03
T1 sequence (P01116 1-188 isoform P01116-2 G12D): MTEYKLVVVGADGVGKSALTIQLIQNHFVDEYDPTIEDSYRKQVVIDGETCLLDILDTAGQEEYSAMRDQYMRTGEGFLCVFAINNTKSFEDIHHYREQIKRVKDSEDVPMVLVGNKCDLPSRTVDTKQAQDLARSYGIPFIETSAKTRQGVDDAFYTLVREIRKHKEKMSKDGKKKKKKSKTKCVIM
Description: The degradation effects of the compounds on KRAS-G12D were investigated on KRAS G12D mutant human lung cancer cell A-427 (ATCC), KRAS G12D mutant human gastric cancer cell AGS, KRAS G12D mutant human metastatic pancreatic cancer cell AsPc-1, and KRAS G12D mutant human pancreatic adenocarcinoma cell Panc 04.03. The specific procedures were as follows: 0.95 mL of cells were seeded into each well of a 24-well cell culture plate to achieve a cell density of 5×10^5 cells/well; and the cell plate was incubated in an incubator at 37° C. with 5% CO2 overnight. Then 50 μL of the compound solution after dilution was added to each of the wells with the corresponding cells, so that the final concentration of the compound was in a range of 0.03-3000 nM. The final concentration of DMSO was 0.25%. After the compounds were added, the cell plate was incubated in the incubator at 37° C. with 5% CO2 for 24 h. The culture medium in the 24-well cell culture plate was removed, and the plate was washed twice with 1×PBS (KeyGEN). 120 μL of RIPA (strong) lysis buffer (Beyotime) supplemented with 1 mM phenylmethylsulfonyl fluoride, a protease inhibitor mixture (Beyotime), and a protease phosphatase inhibitor mixture (Beyotime) was added to lyse adherent A-427 cells at the bottom of the cell culture plate. After the plate was left to stand on ice for 30 min, the protein lysate in each well was transferred to a 1.5 mL centrifuge tube and centrifuged at 15000 g for 20 min at 4° C. The cell lysate supernatants after centrifugation were cryopreserved in a refrigerator at −80° C. for later use.
After the samples of the cell lysate supernatants that had been prepared were thawed from the refrigerator at −80° C., the total protein concentrations of the cell lysates were determined using a BCA protein quantification kit (Tiangen). The total protein concentrations of the samples were then adjusted to 0.5 μg/μL with PBS and 5×SDS-PAGE protein loading buffer (Beyotime), and the samples were incubated in a water bath at 100° C. for 15 min. The samples were then incubated in an ice bath for 5 min and centrifuged at 14000 g for 1 min at 4° C., and the supernatants were mixed well as loading samples for the Western Blot assay. The samples were loaded into wells of a 10% precast gel (KeyGEN) with a loading volume of 10 μL (total protein: 5 μg), a sufficient Tris-MOPS-SDS running buffer (Adamas) was added, and then electrophoresis was performed at a constant voltage of 120 V for 55 min. After the electrophoresis, the proteins on the gel were transferred to PVDF membranes at a constant current of 250 mA for 55 min. After the membrane transfer, the PVDF membranes were incubated in 1× Quick Block blocking buffer (Beyotime) at room temperature for 30 min. After the blocking, the PVDF membranes were separately incubated at 4° C. overnight with the KRAS antibody (Abcam) diluted in a ratio of 1:1000 and the […] antibody (Abcam) diluted in a ratio of 1:2000 in 5% BSA as the diluent, and then washed with 1×TBST buffer (2.4 g of Tris, 8.8 g of NaCl, 1.5 mL of Tween 20, with pH adjusted to 7.4, with the volume brought to 1 L) 3 times for 10 min/time. The membranes were incubated with a secondary antibody (Abcam) diluted in 5% BSA at room temperature for 2 h, and then washed with 1×TBST buffer 3 times for 10 min/time. Finally, the membranes were incubated with Clarity Western ECL Substrate (BIO-RAD) for 5 min for luminescence and color development, and a ChemiScope 6200 Touch chemiluminescence imaging system (Clinx) was used for color development and protein mapping. Gray value analysis of the protein maps was performed using the chemiluminescence analysis software (Clinx). The gray correction value for each sample was calculated using the formula: gray correction value=(gray value of target protein/gray value of corresponding internal reference)×10^3. Then degradation rates were calculated by comparison with the gray correction value of the control group. […]

Compound | IC50 [1] [nM] | DC50 ([2]; class symbols) [nM] | DC50 ([2]; numeric values) [nM] | Dmax ([2]; numeric values) [%] | also measured
C#Cc1c(F)ccc2cc(O)cc(-c3ncc4c(N5C[C@@H]6C[C@H]5CN6)nc(OCC5(CN6CCN(CC7CCC8(CC7)CCN(C(=O)c7ccc(C)c(N9CCC(=O)NC9=O)c7)CC8)CC6)CC5)nc4c3F)c12 [Example 86, 1-(5-(9-((4-((1-(((4-((1S,4S)-2,5-diazabicyclo[2.2.1]heptan-2-yl)-7-(8-ethynyl-7-fluoro-3-hydroxynaphthalen-1-yl)-8-fluoropyrido[4,3-d]pyrimidin-2-yl)oxy)methyl)cyclopropyl)methyl)piperazin-1-yl)methyl)-3-azaspiro[5.5]undecane-3-carbonyl)-2-methylphenyl)dihydropyrimidine-2,4(1H,3H)-dione] | 97.5 |  |  |  | 
C#Cc1c(F)ccc2cc(O)cc(-c3ncc4c(N5CC6CCC(C5)N6)nc(OCC5(CN6CCN(CCC7CC8(CCN(C(=O)c9ccc(OC)c(N%10CCC(=O)NC%10=O)c9)CC8)C7)CC6)CC5)nc4c3F)c12 [Example 43, 1-(5-(2-(2-(4-((1-(((4-(3,8-diazabicyclo[3.2.1]octan-3-yl)-7-(8-ethynyl-7-fluoro-3-hydroxynaphthalen-1-yl)-8-fluoropyrido[4,3-d]pyrimidin-2-yl)oxy)methyl)cyclopropyl)methyl)piperazin-1-yl)ethyl)-7-azaspiro[3.5]nonane-7-carbonyl)-2-methoxyphenyl)dihydropyrimidine-2,4(1H,3H)-dione] |  | ≤ 50 |  |  | Dmax ([2]; class symbols): 50 to 80%
C#Cc1c(F)ccc2cc(O)cc(-c3ccc4c(N5CC6CCC(C5)N6)nc(OCC5(CN6CCN(CC7CCC8(CC7)CCN(C(=O)c7ccc(Cl)c(N9CCC(=O)NC9=O)c7)CC8)CC6)CC5)nc4c3F)c12 [Example 72, 1-(5-(9-((4-((1-(((4-(3,8-diazabicyclo[3.2.1]octan-3-yl)-7-(8-ethynyl-7-fluoro-3-hydroxynaphthalen-1-yl)-8-fluoroquinazolin-2-yl)oxy)methyl)cyclopropyl)methyl)piperazin-1-yl)methyl)-3-azaspiro[5.5]undecane-3-carbonyl)-2-chlorophenyl)dihydropyrimidine-2,4(1H,3H)-dione] | 8.64 |  | 101 | 82.6 | 
CCc1cccc2cc(O)cc(-c3ncc4c(N5CCC6CCC(C5)N6)nc(OCC5(CN6CCN(CC7CCC8(CC7)CCN(C(=O)c7ccc(OC)c(N9CCC(=O)NC9=O)c7)CC8)CC6)CC5)nc4c3F)c12 (stereo not drawn) [Example 88, 1-(5-(9-((4-((1-(((4-(3,9-diazabicyclo[4.2.1]nonan-3-yl)-7-(8-ethyl-3-hydroxynaphthalen-1-yl)-8-fluoropyrido[4,3-d]pyrimidin-2-yl)oxy)methyl)cyclopropyl)methyl)piperazin-1-yl)methyl)-3-azaspiro[5.5]undecane-3-carbonyl)-2-methoxyphenyl)dihydropyrimidine-2,4(1H,3H)-dione] |  |  | 0.65 | 89.5 | 
C#Cc1c(F)ccc2cc(O)cc(-c3ncc4c(N5CC6CCC(C5)N6)nc(NCC5(CN6CCN(CC7CCC8(CC7)CCN(C(=O)c7ccc(Cl)c(N9CCC(=O)NC9=O)c7)CC8)CC6)CC5)nc4c3F)c12 [Example 46, 1-(5-(9-((4-((1-(((4-(3,8-diazabicyclo[3.2.1]octan-3-yl)-7-(8-ethynyl-7-fluoro-3-hydroxynaphthalen-1-yl)-8-fluoropyrido[4,3-d]pyrimidin-2-yl)amino)methyl)cyclopropyl)methyl)piperazin-1-yl)methyl)-3-azaspiro[5.5]undecane-3-carbonyl)-2-chlorophenyl)dihydropyrimidine-2,4(1H,3H)-dione] |  | ≤ 50 |  |  | Dmax ([2]; class symbols): 80 to 100%
C#Cc1c(F)ccc2cc(O)cc(-c3ncc4c(N5CC6CCC(C5)N6)nc(OCC5(CN6CC(CCN7CCC8(CC7)CCN(C(=O)c7ccc(OC)c(N9CCC(=O)NC9=O)c7)CC8)C6)CC5)nc4c3F)c12 [Example 41, 1-(5-(9-(2-(1-((1-(((4-(3,8-diazabicyclo[3.2.1]octan-3-yl)-7-(8-ethynyl-7-fluoro-3-hydroxynaphthalen-1-yl)-8-fluoropyrido[4,3-d]pyrimidin-2-yl)oxy)methyl)cyclopropyl)methyl)azetidin-3-yl)ethyl)-3,9-diazaspiro[5.5]undecane-3-carbonyl)-2-methoxyphenyl)dihydropyrimidine-2,4(1H,3H)-dione] |  | 1000 to 10000 |  |  | 
C#Cc1c(F)ccc2cc(O)cc(-c3ncc4c(N5CC6CCC(C5)N6)nc(OCC5CCN(CCCC6CCC7(CC6)CCN(C(=O)c6ccc(Cl)c(N8CCC(=O)NC8=O)c6)CC7)CC5)nc4c3F)c12 [Example 68, 1-(5-(9-(3-(4-(((4-(3,8-diazabicyclo[3.2.1]octan-3-yl)-7-(8-ethynyl-7-fluoro-3-hydroxynaphthalen-1-yl)-8-fluoropyrido[4,3-d]pyrimidin-2-yl)oxy)methyl)piperidin-1-yl)propyl)-3-azaspiro[5.5]undecane-3-carbonyl)-2-chlorophenyl)dihydropyrimidine-2,4(1H,3H)-dione] | 24.8 |  |  |  | 
CCc1cccc2cc(O)cc(-c3ccc4c(N5CC6CCC(C5)N6)nc(OCC5(CN6CCN(CC7CCC8(CC7)CCN(C(=O)c7ccc(OC)c(N9CCC(=O)NC9=O)c7)CC8)CC6)CC5)nc4c3F)c12 [Example 83, 1-(5-(9-((4-((1-(((4-(3,8-diazabicyclo[3.2.1]octan-3-yl)-7-(8-ethyl-3-hydroxynaphthalen-1-yl)-8-fluoroquinazolin-2-yl)oxy)methyl)cyclopropyl)methyl)piperazin-1-yl)methyl)-3-azaspiro[5.5]undecane-3-carbonyl)-2-methoxyphenyl)dihydropyrimidine-2,4(1H,3H)-dione] |  |  | 33.9 | 87.2 | 
C#Cc1c(F)ccc2cc(O)cc(-c3ncc4c(N5CC6CCC(C5)N6)nc(OCC5(CN6CC7CC(C6)N7CC6CCC7(CC6)CCN(C(=O)c6ccc(Cl)c(N8CCC(=O)NC8=O)c6)CC7)CC5)nc4c3F)c12 [Example 87, 1-(5-(9-((3-((1-(((4-(3,8-diazabicyclo[3.2.1]octan-3-yl)-7-(8-ethynyl-7-fluoro-3-hydroxynaphthalen-1-yl)-8-fluoropyrido[4,3-d]pyrimidin-2-yl)oxy)methyl)cyclopropyl)methyl)-3,6-diazabicyclo[3.1.1]heptan-6-yl)methyl)-3-azaspiro[5.5]undecane-3-carbonyl)-2-chlorophenyl)dihydropyrimidine-2,4(1H,3H)-dione] | 606 |  |  |  | 
